Test results taken from ChEMBL document CHEMBL3045306, “Ultrasound-promoted synthesis, biological evaluation and molecular docking of novel 7-(2-chloroquinolin-4-yloxy)-4-methyl-2H-chromen-2-one derivatives” (2013).
Values after ≈ are worked out from the molar mass of the structure shown.

Columns and labels:
Assay type in all cases: functional
[1] = test system: Radical scavenging activity; experiment: Antioxidant activity assessed as inhibition of DPPH radical formation at 100 ug after 30 mis UV-Vis spectrophotometric analysis
[2] = test system: Radical scavenging activity; experiment: Antioxidant activity assessed as inhibition of DPPH radical formation at 1000 ug after 30 mis UV-Vis spectrophotometric analysis
[3] = test system: Radical scavenging activity; experiment: Antioxidant activity assessed as inhibition of DPPH radical formation at 500 ug after 30 mis UV-Vis spectrophotometric analysis
[4] = test system: Meloidogyne; experiment: Nematicidal activity against Meloidogyne litoralis assessed as growth inhibition
[5] = test system: Pseudomonas aeruginosa; experiment: Antibacterial activity against Pseudomonas aeruginosa assessed as growth inhibition
[6] = test system: Radical scavenging activity; experiment: Antioxidant activity assessed as inhibition of DPPH radical formation at 50 ug after 30 mis UV-Vis spectrophotometric analysis
[7] = test system: Staphylococcus aureus; experiment: Antibacterial activity against Staphylococcus aureus assessed as growth inhibition
[8] = test system: Escherichia coli; experiment: Antibacterial activity against Escherichia coli assessed as growth inhibition
[9] = test system: Bacillus subtilis; experiment: Antibacterial activity against Bacillus subtilis assessed as growth inhibition

With Cc1cc(=O)oc2cc(Oc3cc(Cl)nc4ccc(Br)cc34)ccc12 the inhibition [1] was 26%, the inhibition [2] was 76% and the inhibition [3] was 54%. For the same compound, the MIC [4] was 6.25 µg/mL (≈ 15 µM), the MIC [5] was 50 µg/mL (≈ 120 µM) and the inhibition [6] was 24%.
Cc1cc(=O)oc2cc(Oc3cc(Cl)nc4ccccc34)ccc12 gave an inhibition [1] of 23%, an inhibition [2] of 78% and an inhibition [3] of 53%. The MIC [4] was 100 µg/mL (≈ 296 µM), the MIC [5] was 12.5 µg/mL (≈ 37 µM) and the MIC [7] was 50 µg/mL (≈ 148 µM). The MIC [8] was 100 µg/mL (≈ 296 µM) and the inhibition [6] was 21%.
CN[C@@H]1[C@H](O[C@H]2[C@H](O[C@H]3[C@H](O)[C@@H](O)[C@H](N=C(N)N)[C@@H](O)[C@@H]3N=C(N)N)O[C@@H](C)[C@]2(O)C=O)O[C@@H](CO)[C@H](O)[C@H]1O [STREPTOMYCIN] was tested, and the MIC [4] was 6.25 µg/mL (≈ 10.7 µM), the MIC [5] was 12.5 µg/mL (≈ 21.5 µM) and the MIC [7] was 25 µg/mL (≈ 43 µM). The MIC [8] was 6.25 µg/mL (≈ 10.7 µM) and the MIC [9] was 12.5 µg/mL (≈ 21.5 µM).
Cc1cc(=O)oc2cc(Oc3cc(Cl)nc4c(C)cccc34)ccc12 showed an inhibition [1] of 14%, an inhibition [2] of 68% and an inhibition [3] of 45%. For the same compound, the MIC [4] was 100 µg/mL (≈ 284 µM), the MIC [8] was 6.25 µg/mL (≈ 17.8 µM) and the inhibition [6] was 12%.
Compound Cc1cc(=O)oc2cc(Oc3cc(Cl)nc4c3ccc3ccccc34)ccc12 has an inhibition [1] of 15%, an inhibition [2] of 67% and an inhibition [3] of 40%. The MIC [5] was 6.25 µg/mL (≈ 16.1 µM), the MIC [7] was 50 µg/mL (≈ 129 µM) and the MIC [8] was 6.25 µg/mL (≈ 16.1 µM). For the same compound, the inhibition [6] was 14%.
Compound Cc1ccc2c(Oc3ccc4c(C)cc(=O)oc4c3)cc(Cl)nc2c1 has an inhibition [1] of 11%, an inhibition [2] of 65% and an inhibition [3] of 35%. For the same compound, the MIC [5] was 12.5 µg/mL (≈ 35.5 µM) and the inhibition [6] was 10%.
In the case of COc1cccc2c(Oc3ccc4c(C)cc(=O)oc4c3)cc(Cl)nc12, the inhibition [1] was 11%, the inhibition [2] was 69% and the inhibition [3] was 38%. For the same compound, the MIC [5] was 6.25 µg/mL (≈ 17 µM), the MIC [8] was 6.25 µg/mL (≈ 17 µM) and the inhibition [6] was 8%. For the same compound, the MIC [9] was 100 µg/mL (≈ 272 µM).
Cc1ccc2nc(Cl)cc(Oc3ccc4c(C)cc(=O)oc4c3)c2c1 showed an inhibition [1] of 20%, an inhibition [2] of 69% and an inhibition [3] of 57%. For the same compound, the MIC [5] was 100 µg/mL (≈ 284 µM), the MIC [7] was 12.5 µg/mL (≈ 35.5 µM) and the MIC [8] was 12.5 µg/mL (≈ 35.5 µM). It also gave an inhibition [6] of 19%.
Cc1cc(C(C)(C)C)c(O)c(C(C)(C)C)c1 gave an inhibition [1] of 94%, an inhibition [2] of 98% and an inhibition [3] of 96%. It also gave an inhibition [6] of 93%.
